In patent US9433607B2, “Composition for prevention or treatment of cancer comprising N-methylenenaphtho[2,1-b]furan-2-carbohydrazide derivatives as an active ingredient” (KOREA RESEARCH INSTITUTE OF BIOSCIENCE AND BIOTECHNOLOGY, priority 2012, dated 2016):

Assays:
HepG2 = test: Anti-proliferative MTT assay, HepG2; format: cell-based; conditions: Homo sapiens, 96 h, HepG2, Liver, 4 days
Protocol: (§1) Various cancer cell lines (rectal cancer, prostate cancer, breast cancer, lung cancer, stomach cancer, liver cancer, leukemia, brain cancer, and glioma cell lines) were cultured in microtiter plate (1-3×10^3 cells/well), to which ethyl(2-methyl-3{(E)-[(naphtho[2,1-b]furan-2-ylcarbonyl)hydrazono]methyl}-1H-indole-1-yl)acetate was treated. The culture continued for 4 days. Cytotoxicity was investigated by MTT assay by the same manner as described in Example <1-2>. IC50 was calculated by long-dose response curve. The data presents the mean value obtained from the assay performed in triplicate.

HCT116 = test: Anti-proliferative MTT assay, HCT116; format: cell-based; conditions: Homo sapiens, HCT-116, 96 h, HCT116, Large intestine, 4 days
Protocol: as §1

PC-3 = test: Anti-proliferative MTT assay, PC-3; format: cell-based; conditions: Homo sapiens, 96 h, PC-3, Prostate, 4 days
Protocol: as §1

NCl-H460 = test: Anti-proliferative MTT assay, NCl-H460; format: cell-based; conditions: 96 h, NCl-H460, Lung, 4 days
Protocol: as §1

HL60 = test: Anti-proliferative MTT assay, HL60; format: cell-based; conditions: Homo sapiens, HL-60, 96 h, HL60, Blood, 4 days
Protocol: as §1

A-172 = test: Anti-proliferative MTT assay, A-172; format: cell-based; conditions: Homo sapiens, 96 h, A-172, Brain, 4 days
Protocol: as §1

SNB-75 = test: Anti-proliferative MTT assay, SNB-75; format: cell-based; conditions: Homo sapiens, 96 h, SNB-75, Brain, 4 days
Protocol: as §1

U373MG = test: Anti-proliferative MTT assay, U373MG; format: cell-based; conditions: Homo sapiens, U373 MG, 96 h, Brain, 4 days
Protocol: as §1

K562 = test: Cytotoxicity MTT assay, K562; format: cell-based; conditions: Homo sapiens, 96 h, 4 days
Protocol: Particularly, K562, MCF7 (Bio-Evaluation Center, Korea Research Institute of Bioscience and Biotechnology, Korea), and the multi-drug resistant cell lines thereof, K562/ADR and MCF7/ADR (Bio-Evaluation Center, Korea Research Institute of Bioscience and Biotechnology, Korea) were cultured in microtiter plate (1-3×10^3 cells/well). Then, the cells were treated with ethyl(2-methyl-3{(E)-[(naphtho[2,1-b]furan-2-ylcarbonyl)hydrazono]methyl}-1H-indole-1-yl)acetate, doxorubicin, or taxol, followed by culture for 4 days. Cytotoxicity was investigated by MTT assay by the same manner as described in Example <1-2>. IC50 was calculated by long-dose response curve. The data presents the mean value obtained from the assay performed in triplicate (Table 3).

[1] = tested on: Cdc25C, Cyclin B1, and Plk1 (Polo-like kinase 1); test: Immunoblotting of proteins regulating cell division; format: cell-based; conditions: HeLa cells, 17 hours
Description: The effect of ethyl(2-methyl-3{(E)-[(naphtho[2,1-b]furan-2-ylcarbonyl)hydrazono]methyl}-1H-indole-1-yl)acetate on Cdc25C, Cyclin B1, and Plk1 (Polo-like kinase 1), the proteins regulating cell division, was investigated. When Cdc25C is activated in the course of cell division, Cdc25C is hyperphosphorylated so that its movement on SDS-PAGE is slowed down. Based on that principal, Cdc25C activation was investigated. Referring that the expressions of Cyclin B1 and Plk1 are differently regulated in each stage of cell cycle, the expression of each protein was measured. The levels of Cyclin B1 and Plk1 were the lowest in G1 phase.
HeLa cells were treated with DMSO, nocodazole (NOC), or ethyl(2-methyl-3{(E)-[(naphtho[2,1-b]furan-2-ylcarbonyl)hydrazono]methyl}-1H-indole-1-yl)acetate for 17 hours. The cells were harvested, followed by immunoblotting using cyclin B1, Cdc25C, Plk1, and GAPDH specific antibodies. GAPDH was used as a loading control.

purified tubulin = test: In vitro tubulin polymerization, degree of turbidity; format: biochemical; conditions: 5 μM, purified tubulin and GTP, 340 nm
Protocol: To measure the polymerization of tubulin in vitro, the buffer containing the purified tubulin and GTP was treated with ethyl(2-methyl-3{(E)-[(naphtho[2,1-b]furan-2-ylcarbonyl)hydrazono]methyl}-1H-indole-1-yl)acetate at the concentration of 5 μM. DMSO, and the equivalent Taxol and vinblastine were used as the controls. The polymerization of tubulin into microtubules was determined if the degree of turbidity was 340 nm.

[2] = tested on: FVB/N mouse induced with skin tumor; test: DMBA/TPA induced skin tumor model; format: in vivo
Protocol: In this invention, the male FVB/N mice (6-7 weeks, Jackson Laboratory, USA) were raised under the condition of 12 hr bright lighting/12 hr dim lighting at the temperature of 24±2° C. with the humidity of 50±10% with water and feed provided freely. The care and process of the test animal was reviewed and approved by Institutional Animal Care and Use Committee (IACUC), Korea Research Institute of Bioscience and Biotechnology (KRIBB). DMBA (7,12-dimethylbenz[α]anthracene), TPA (12-O-tetradecanoylphorbol-13-acetate) and cholchicine were purchased from Sigma-Aldrich, and the synthesized ethyl(2-methyl-3{(E)-[(naphtho[2,1-b]furan-2-ylcarbonyl)hydrazono]methyl}-1H-indole-1-yl)acetate was provided from Dr. Thimmegowda.
Particularly, the dorsal skin of the said FVB/N mouse was shaved two days before the experiment. 100 μg of DMBA was added to 0.2 ml of acetone, which was treated to the mouse by single-local administration for 1 week to induce tumor. 5 fig of TPA was added to 0.2 ml of acetone, which was treated to the above mouse induced with tumor […] for 15 weeks to grow the tumor. 500 nM of ethyl(2-methyl-3{(E)-[(naphtho[2,1-b]furan-2-ylcarbonyl)hydrazono]methyl}-1H-indole-1-yl)acetate or cholchicine was dissolved in 0.2 ml of acetone, which was treated to the above mouse locally for 30 minutes each time for 15 weeks. Each group was composed of at least 10 mice and total 4 groups were prepared:
Group 1: DMBA and acetone treated group (negative control)
Group 2: DMBA and TPA treated group (positive control)
Group 3: DMBA/TPA and cholchicine treated group (experimental group 1)
Group 4: DMBA/TPA and ethyl(2-methyl-3{(E)-[(naphtho[2,1-b]furan-2-ylcarbonyl)hydrazono]methyl}-1H-indole-1-yl)acetate treated group (experimental group 2).
In addition, skin tumor such as papilloma was checked every week during the whole period of experiment. The tumor in the size of at least 2 mm was judged as positive. 15 weeks later, the mice were sacrificed with CO2. The skin tumor was extracted for histopathological/biochemical analysis.
The average number and the volume of tumor in each group were calculated.
Each mouse group was treated with different materials by the same manner as described in Example <8-2>, followed by observation for 15 weeks, and then the number of mice having skin tumor was counted. Tumor development rate was presented as %.
The mouse induced with skin tumor by the same manner as described in Example <8-2> was treated with DMBA, and then the induced tumors were observed and weighed for 15 weeks to produce the average weight of tumor.

IC50 (HepG2): 820 nM | IC50 (HCT116): 717 nM | IC50 (PC-3): 650 nM | IC50 (NCl-H460): 806 nM | IC50 (HL60): 563 nM
SMILES: CCOC(=O)Cn1c(C)c(/C=N/NC(=O)c2cc3c(ccc4ccccc43)o2)c2ccccc21 [STK899704]
IC50 (A-172): 603 nM | IC50 (SNB-75): 588 nM | IC50 (U373MG): 517 nM | IC50 (K562): 450 nM | effect on Cdc25C, cyclin B1 and Plk1 (immunoblotting) [1]: Cdc25C was phosphorylated and cyclin B1 and Plk1 were accumulated | degree of turbidity (tubulin polymerization) compared with Taxol (purified tubulin): the degree of turbidity was lower | number of skin tumor ([2]; 500 nM in 0.2 ml acetone, local, 15 weeks): significantly reduced | weight of tumor compared with positive control ([2]; 15 weeks): significantly lighter | average volume of skin tumor reduced compared with positive control ([2]; 15 weeks, 500 nM local): 20.3% | decrease of average number of skin tumor compared with positive control ([2]; 15 weeks, 500 nM local): 4.75 times | average weight of tumor as fraction of positive control ([2]; 15 weeks, experimental group 2): 1/10 | week to which tumor formation was postponed ([2]; tumor of at least 2 mm, positive control from 8th week): 10 week
